{"source": "paper PMC7187627", "about": "(Antimicrobial Agents and Chemotherapy, 2019)", "key": {"gut microbiota": {"tested_on": "gut microbiota", "experiment": "Fecal microbiome analysis by 16S rRNA gene sequencing", "type": "in vivo, human", "protocol": "Fecal microbiota profiles were measured for each sample as each operational taxonomic unit (OTU) species present and the relative abundance of that species, based on a region of 469 bp encompassing the V3 and V4 hypervariable regions of the 16S rRNA gene, following protocols developed at the Department of Microbiology and Immunology, University of Maryland School of Medicine Institute for Genome Sciences, Baltimore, MD ([40][–][42]).\n(i) Sample collection and storage and DNA extraction. Fecal samples were collected at nine time points during the study for fecal microbiome analysis: twice before the first dose, on days 1, 4, 7, 9, and 12, and approximately 24 h prior to follow-up visits on day 18 and day 29. The subject was allowed to collect and bring the first fecal sample when admitted (collected within 24 h of admission and kept refrigerated until collected by staff). DNA was extracted from 150 mg of archived stool samples stored at –80°C for 16S rRNA gene amplification and sequencing. Cell lysis was initiated by adding 50 μl of lyzosyme (10 mg/ml), 6 μl of mutanolysin (25,000 U/ml; Sigma-Aldrich), and 3 μl of lysostaphin (4,000 U/ml in sodium acetate; Sigma-Aldrich) and 41 μl of TE50 buffer (10 mM Tris-HCl, 50 mM EDTA [pH 8.0]). Following a 1-h incubation at 37°C, 10 μl of proteinase K (20 mg/ml), 100 μl of 10% SDS, and 20 μl of RNase A (20 mg/ml) were added to the mixture and incubated for 1 h at 55°C. Microbial cells were lysed by mechanical disruption using a bead beater (FastPrep instrument; Qbiogene) set at 6.0 m/s for 30 s. DNA was purified from the lysate using the QIAsymphony robotics platform, consistently providing between 5 and 20 μg of high-quality and amplifiable whole genomic DNA. Following DNA quantitation via the Quant-iTTM PicoGreen double-stranded DNA (dsDNA) assay kit (Life Technologies), samples were diluted to a 5-ng/μl concentration.\nPCRs with dually barcoded 16S rRNA universal primers (319F/806R) were set up using a semiautomated platform with a ViaFlo 96 high-performance 96-channel pipettor and performed on Bio-Rad Tetrad 2 instruments with up to 576 dual index barcoding ([40]). […] The cycling parameters were 30 s of denaturation at 98°C, followed by 30 cycles of 15 s at 98°C (denaturing), 15 s at 58°C (annealing), and 15 s at 72°C (elongation), with a final extension at 72°C for 60 s. Controls included a no-template control for each barcode combination, extraction controls, and a DNA sample of known composition (positive control). The presence of amplicons was confirmed by gel electrophoresis on a 2% E-gel 96. PCR products were normalized using the SequalPrep normalization kit (Life Technologies, Carlsbad, CA) and pooled in equimolar amounts (25 ng) in a single tube. Amplification primers and reaction buffer were removed from the pooled amplicon mixtures using an AMPure kit (Agencourt). The purified amplicon mixtures (up to 576 per pool) were sequenced on an Illumina MiSeq instrument using the 300-bp paired-end protocol (MiSeq 300PE) at the Genomics Resource Center (GRC) at the Institute for Genome Sciences, University of Maryland School of Medicine.\n(iii) Bioinformatic analysis. For sequence quality control, assembly, and taxonomic assignments, a custom bioinformatics pipeline ([40]) was applied that relies on QIIME software ([43]), UCHIME ([44]), and the RDP Naïve Bayesian classifier ([45]). Baseline for fecal microbiome assessments was defined as the mean of the predose assessments on day 1. Presence was defined as positive abundance. The presence of each OTU species and the shift in presence/absence occurrence from baseline were tabulated by treatment. Shifts were categorized as no change, appearance, and disappearance.\nAdditional 16S rRNA data analysis was performed at the Division of Biomedical Informatics and Personalized Medicine, University of Colorado. Joined and quality-filtered sequences sharing >97% sequence similarity were binned as OTUs. […]"}, "C. difficile": {"tested_on": "C. difficile", "design": "method as in PMID 19258353, PMID 19251726", "conditions": "in vivo model of CDI, compared with vancomycin; cited from earlier work"}, "[1]": {"experiment": "Drug product stability (ICH Q1A(R2))", "type": "physicochemical", "conditions": "200-mg gelatin capsules, room temperature", "text": "CRS3123 was provided by Crestone, Inc., in the form of dihydrochloride salt (CRS3123.2HCl) and formulated into 200-mg gelatin capsules by SRI International (Palo Alto, CA). Drug product stability specifications were met beyond the study period [stable for at least 60 months storage at room temperature monitored according to ICH Guidance for Industry Q1A(R2) Stability Testing of New Substances and Products]."}}, "note": "“Also recorded” adds a separate entry of the source."}
{"smiles": "O=c1cc(NCCCN[C@@H]2CCOc3c(Br)cc(Br)cc32)[nH]c2ccsc12", "note": "[CRS3123]", "values": [{"measurement": "median weighted UniFrac distance to placebo arm (community composition)", "setting": "gut microbiota; 200 mg, day 9, P = 0.006", "result": 0.361}, {"measurement": "proteobacteria, maximum relative abundance", "setting": "gut microbiota; 200 mg, pretreatment value 0.8%", "result": 1.6, "unit": "%"}, {"measurement": "median weighted UniFrac distance to placebo arm (community composition)", "setting": "gut microbiota; 400 mg, day 9, P = 0.027", "result": 0.440}, {"measurement": "median weighted UniFrac distance to placebo arm (community composition)", "setting": "gut microbiota; 400 mg, day 29, P = 0.177", "result": 0.4480}, {"measurement": "proteobacteria, relative abundance", "setting": "gut microbiota; 600 mg", "result": "< 10", "unit": "%"}, {"measurement": "median weighted UniFrac distance to placebo arm (community composition)", "setting": "gut microbiota; 600 mg, day 9, P = 0.013", "result": 0.663}, {"measurement": "median weighted UniFrac distance to placebo arm (community composition)", "setting": "gut microbiota; 600 mg, day 29, P = 0.077", "result": 0.470}, {"measurement": "increase in proteobacteria", "setting": "gut microbiota; 200-mg and 400-mg doses", "result": "did not see an increase"}, {"measurement": "proportion of the major phyla in stool over time", "setting": "gut microbiota; 200-mg dosing group, not different from placebo", "result": "minimal changes over time"}, {"measurement": "relative abundance of Firmicutes", "setting": "gut microbiota; 400-mg- and 600-mg-BID dosing groups, Bacteroidetes and Actinobacteria increased", "result": "decreased"}, {"measurement": "changes in highly abundant intestinal genera", "setting": "gut microbiota; after 9 days of twice-daily dosing, exception target genus Clostridium", "result": "no significant changes"}, {"measurement": "loss of phyla during treatment", "setting": "gut microbiota; any dose", "result": "no phyla were lost"}, {"measurement": "time until composition was back to baseline levels after stopping the treatment", "setting": "gut microbiota; any dose", "result": "≤ 7", "unit": "days"}, {"measurement": "effect on commensal anaerobes (Bacteroides, bifidobacteria, Clostridium clusters XIVa and IV)", "setting": "gut microbiota; stool microbiome of healthy subjects", "result": "inactive; also recorded: did not impact"}, {"measurement": "percentage of subjects with Clostridium species isolated at baseline but not at subsequent visits", "setting": "gut microbiota; treatment phase, day 1 through day 10, versus placebo", "result": "greater in the CRS3123 treatment groups than in the placebo group"}, {"measurement": "disruption of normal gut microbiota", "setting": "gut microbiota; two lower doses (200, 400 mg), 10 days twice daily", "result": "minimal disruption"}, {"measurement": "protection of hamsters against recurrence", "setting": "C. difficile", "result": "superior to vancomycin"}, {"measurement": "drug product stability, storage time", "setting": "[1]", "result": "at least 60 months"}]}
